Measured values taken from publication PMC10856265, “Penisimplicins A and B: Novel Polyketide–Peptide Hybrid Alkaloids from the Fungus Penicillium simplicissimum JXCC5” (Molecules, 2024).
pIC50: −log10 of the molar value.

Assays:
[1] = target: acetylcholinesterase; settings: cited from earlier work; for pIC50: read-out: anti-acetylcholinesterase activity IC50
[2] = system: murine monocytic RAW264.7 macrophage cells; assay: Anti-inflammatory assay: NO production by the Griess method; type: cell-based; settings: LPS (0.5 µg/mL)-stimulated RAW264.7 cells, NO content
Description: The content of NO was determined by the Griess method. Briefly, the murine monocytic RAW264.7 macrophage cells in logarithmic growth phase were diluted to 1 × 10^5 cells/mL. Then, 100 µL of cell dilution was seeded into the 96-well plates and incubated overnight at 37 °C in a humid atmosphere with 5% CO2 for 24 h. The test compound and lipopolysaccharides (LPS) (Sigma) (0.5 µg/mL) were then added to each well and incubated for another 18 h. Then, 50 µL of cells culture supernatant was taken, 50 µL of the Griess reagent (reagent A and reagent B, Sigma) was added in triplicate, and NO production was evaluated in each well. After 5 min of incubation, the absorbances of samples were measured at 570 nm with Envision multilabel plate reader, and the corresponding contents were calculated by curve calibration.

[3] = target: T1, Acetylcholinesterase (AChE) (Homo sapiens, UniProt P22303); assay: biochemical; settings: Ellman method, pH 8.0, 37 °C, absorbance at 405 nm; read-out: acetylcholinesterase inhibitory activity IC50
T1 construct: purchased Sigma-Aldrich
T1 sequence (P22303 32-614, species assumed): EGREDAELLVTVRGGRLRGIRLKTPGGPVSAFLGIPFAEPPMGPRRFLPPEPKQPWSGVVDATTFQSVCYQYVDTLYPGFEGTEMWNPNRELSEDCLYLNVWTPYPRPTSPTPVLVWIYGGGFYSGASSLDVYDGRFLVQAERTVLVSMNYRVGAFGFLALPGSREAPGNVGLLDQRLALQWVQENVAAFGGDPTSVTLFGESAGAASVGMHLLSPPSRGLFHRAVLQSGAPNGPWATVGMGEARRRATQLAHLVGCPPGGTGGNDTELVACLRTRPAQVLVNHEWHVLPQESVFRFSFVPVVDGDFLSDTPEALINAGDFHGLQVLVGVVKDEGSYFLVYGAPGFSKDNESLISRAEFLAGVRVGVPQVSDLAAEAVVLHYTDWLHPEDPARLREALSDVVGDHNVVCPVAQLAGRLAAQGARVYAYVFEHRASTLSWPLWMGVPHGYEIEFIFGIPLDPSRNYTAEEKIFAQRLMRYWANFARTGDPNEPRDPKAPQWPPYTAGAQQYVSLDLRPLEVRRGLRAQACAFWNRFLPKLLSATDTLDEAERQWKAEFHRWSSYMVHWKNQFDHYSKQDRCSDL
Description: Acetylcholinesterase (AChE, Sigma-Aldrich, Saint Louis, MO, USA, 0.1 U/mL), acetylthiocholine iodide, dithiobisnitrobenzoic acid (DTNB), and tacrine were bought from Sigma-Aldrich.
The AChE inhibitory activity was evaluated based on the protocol developed by Ellman et al. [33]. The enzymatic reactions were conducted in 96-well microplates. The following were added to each well: 110 μL phosphate buffer (pH 8.0), 40 μL AChE, and the tested compounds (dissolved in 10 μL DMSO). The microplates were then incubated in 37 °C for 20 min. […] Then, the absorbance at 405 nm was detected after 1 h. Seven different concentrations and three replications per concentration for each compound were tested.

Compound	pIC50 [1]	anti-acetylcholinesterase activity IC50 [1] [mg/L]	bioactivity in a panel of biological activity assays, including anti-inflammatory activity [2]	also measured
CC(C)=CCOc1c2ccoc2cc2oc(=O)ccc12 [isoimperatorin]	4.64			
C=C1CCC[C@@]2(C)C[C@@]3([C@@]45C[C@]6(C)CCCC(=C)[C@H]6CC4=C(C)C(=O)O5)OC(=O)C(C)=C3C[C@H]12 [biatractylolide]		6.5458		
COC(C)(C)C(O)CCC(C)=CCOc1c2ccoc2cc2oc(=O)ccc12 (stereo not shown) [6′-hydroxy-7′-methoxybergamottin]	4.88			
CCCCC[C@@H]1Cc2cc(O)c(C(=O)O)c(O)c2[C@@H](c2[nH]c3ccccc3c2CC(=O)OC)O1 [Compound 1, Penisimplicin A]			devoid of any bioactivities	pIC50 [3]: 5.20
COC1=CC(=O)c2c(O)c3c(c(-c4c(OC)cc5c(c4O)C(=O)c4c(O)cc(C)cc4C5=O)c2C1=O)C[C@@H](C)O[C@H]3C [floribundiquinone B]		5.95		
CCCCCC(O)Cc1cc(O)c(C(=O)O)c(O)c1C1CCC2C(=O)NC(CC(C)C)C(=O)N21 (stereo not shown) [Compound 2, Penisimplicin B]			devoid of any bioactivities	
